Legend:
[1] = Differential scanning calorimetry (DSC) of spray-dried human milk oligosaccharides; assay type: physicochemical; details: spray-dried powder; for endothermal event, normalized energy / endothermal event, peak temperature: DSC heating scan (first heating scan where stated); for Tg, 1st heating scan / Tg, 2nd heating scan: glass transition temperature; for Tg, 1st heating scan: midpoint of endothermic shift, reheated to 100 °C at 10 K/min; for Tg, 2nd heating scan: second heating cycle, reheated to 150 °C
Source text: Using differential scanning calorimetry (DSC) on a Mettler Toledo 821e (Mettler Toledo, Giessen, Germany) thermal events of spray-dried human milk oligosaccharides, namely 3-fucosyllactose, 6'-sialyllactose, 3'-sialyllactose, lacto-N-tetraose, and spray-dried mixtures of human milk oligosaccharides, a mixture (HMO-Mix I) of 2'-fucosyllactose/lacto-N-tetraose, and a mixture (HMO Mix II) of 2'-fucosyllactose, 3-fucosyllactose, lacto-N-tetraose, 6'-sialyllactose, 3'-sialyllactose, respectively, were determined.
A Mettler Toledo 821e (Mettler Toledo, Giessen, Germany) was used to determine thermal events of the spray-dried products (glass transition temperature (Tg), further exo- and endothermic events).
Approximately 25 mg of the spray-dried human milk oligosaccharides were analyzed in crimped Al-crucibles (Mettler Toledo, Giessen, Germany). The samples were cooled to 0 °C with 10 K/min and reheated to 100 °C with a scanning rate of 10 K/min. After cooling down the samples to 0 °C in a second heating cycle, the samples were reheated to 150 °C. The midpoint of the endothermic shift of the baseline during the heating scan was taken as glass transition temperature (Tg). Exothermic and endothermic peaks are reported by means of the peak temperature and the normalized energy of the event.

[2] = Powder particle size by laser diffraction; assay type: physicochemical; parameters: Size, Mean: unit not given here; details: dispersed in isooctane; mean ± standard deviation of 3 measurements
Procedure: The powder particle size was assessed by laser diffraction. The system detects scattered and diffracted light by an array of concentrically arranged sensor elements. The software-algorithm is then approximating the particle counts by calculating the z-values of the light intensity values, which arrive at the different sensor elements. The analysis was executed using a SALD-7500 Aggregate Sizer (Shimadzu Corporation, Kyoto, Japan) quantitative laser diffraction system (qLD).
A small amount (spatula tip) of each sample was dispersed in 2 ml isooctane and homogenized by ultrasonication for five minutes. The dispersion was transferred into a batch cell filled with isooctane and analyzed in manual mode.
Data acquisition settings were as follows: Signal Averaging Count per Measurement: 128, Signal Accumulation Count: 3, and Interval: 2 seconds.
Prior to measurement, the system was blanked with isooctane. Each sample dispersion was measured 3 times and the mean values and the standard deviation are reported. Data was evaluated using software WING SALD II version V3.1. Since the refractive index of the sample was unknown, the refractive index of sugar (disaccharide) particles (1.530) was used for determination of size distribution profiles. Size values for mean and median diameter are reported.

Row | Structure (SMILES) | endothermal event, normalized energy [1] [J/g] | endothermal event, peak temperature [1] | endothermal relaxation peak after Tg ([1]; first heating scan, result in words) | Tg, 1st heating scan [1] | Tg, 2nd heating scan [1] | Size, Median [2] [µm] | Tg, 2nd heating scan ([1]; listed as lacto-N-tetraose) | Size, Mean [2] | endothermal events ([1]; result in words)
1 | CC(=O)N[C@H]1[C@H]([C@H](O)[C@H](O)CO)O[C@@](OC[C@H]2O[C@@H](O[C@H]3[C@H](O)[C@@H](O)[C@H](O)O[C@@H]3CO)[C@H](O)[C@@H](O)[C@H]2O)(C(=O)O)C[C@@H]1O [6'-sialyllactose] | -0.22 | 77 °C | detected | 47,6 °C | 49,6 °C | 141 | – | – | –
2 | CC(=O)N[C@H]1[C@H](O[C@H]2[C@@H](O)[C@@H](CO)O[C@@H](O[C@H]3[C@H](O)[C@@H](O)C(O)O[C@@H]3CO)[C@@H]2O)O[C@H](CO)[C@@H](O)[C@@H]1O[C@@H]1O[C@H](CO)[C@H](O)[C@H](O)[C@H]1O (some centres unmarked) [Lacto-N-tetraose, lacto-N-tetraose] | -6.04 | about 89 °C | – | 49,9 °C | 79,4 °C | 141 | about 79 °C | 117.3 ± 0.7 | –
3 | CC(=O)N[C@H]1[C@H]([C@H](O)[C@H](O)CO)O[C@@](O[C@H]2[C@@H](O)[C@@H](CO)O[C@@H](O[C@H]3[C@H](O)[C@@H](O)C(O)O[C@@H]3CO)[C@@H]2O)(C(=O)O)C[C@@H]1O (some centres unmarked) [3'-sialyllactose] | – | – | – | 48,8 °C | 54,3 °C | 122 ± 16.7 | – | – | No endothermal events were detected
